# Results reported in PMC11066006, “Discovery of active mouse, plant and fungal cytochrome P450s in endogenous proteomes and upon expression in planta” (Scientific Reports, 2024).
# Assays:
# Format in all cases: biochemical
# ZmCYP81A9-GFP [1] = molecular target: T1, ZmCYP81A9-GFP (Zea mays, UniProt A0A804P7U7); test: activity-based labeling, click chemistry, in-gel fluorescence; conditions: 10 μM probe, 1 mM NADPH, 1.5 h, leaf microsomes; covalent
# T1 construct: C-terminal GFP fusion, codon-optimised, agroinfiltrated Nicotiana benthamiana leaf microsomes
# T1 sequence (A0A804P7U7 with tags, fused parts or gaps): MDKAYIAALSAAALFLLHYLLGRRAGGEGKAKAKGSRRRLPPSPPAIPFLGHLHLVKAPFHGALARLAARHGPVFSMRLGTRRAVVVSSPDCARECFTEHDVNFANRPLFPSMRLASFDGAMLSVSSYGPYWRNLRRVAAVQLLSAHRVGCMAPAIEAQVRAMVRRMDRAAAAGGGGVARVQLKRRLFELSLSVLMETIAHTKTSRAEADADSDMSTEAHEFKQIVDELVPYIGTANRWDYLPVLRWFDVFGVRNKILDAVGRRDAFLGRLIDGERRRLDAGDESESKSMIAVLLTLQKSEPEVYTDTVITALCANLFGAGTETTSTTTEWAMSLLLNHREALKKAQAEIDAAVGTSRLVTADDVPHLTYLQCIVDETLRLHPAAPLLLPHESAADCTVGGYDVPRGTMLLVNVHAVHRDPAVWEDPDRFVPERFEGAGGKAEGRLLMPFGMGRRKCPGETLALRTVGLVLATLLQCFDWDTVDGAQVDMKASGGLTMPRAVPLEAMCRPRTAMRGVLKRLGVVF
# MmCyp1a2-GFP = molecular target: T2, MmCyp1a2-GFP (Mus musculus, UniProt P00186); test: as above; conditions: 10 μM probe, 1 mM NADPH, 1.5 h, leaf microsomes; covalent
# T2 construct: gene Cyp1a2; C-terminal GFP fusion, 82 kDa, codon-optimised, agroinfiltrated Nicotiana benthamiana leaf microsomes
# T2 sequence (P00186 2-513): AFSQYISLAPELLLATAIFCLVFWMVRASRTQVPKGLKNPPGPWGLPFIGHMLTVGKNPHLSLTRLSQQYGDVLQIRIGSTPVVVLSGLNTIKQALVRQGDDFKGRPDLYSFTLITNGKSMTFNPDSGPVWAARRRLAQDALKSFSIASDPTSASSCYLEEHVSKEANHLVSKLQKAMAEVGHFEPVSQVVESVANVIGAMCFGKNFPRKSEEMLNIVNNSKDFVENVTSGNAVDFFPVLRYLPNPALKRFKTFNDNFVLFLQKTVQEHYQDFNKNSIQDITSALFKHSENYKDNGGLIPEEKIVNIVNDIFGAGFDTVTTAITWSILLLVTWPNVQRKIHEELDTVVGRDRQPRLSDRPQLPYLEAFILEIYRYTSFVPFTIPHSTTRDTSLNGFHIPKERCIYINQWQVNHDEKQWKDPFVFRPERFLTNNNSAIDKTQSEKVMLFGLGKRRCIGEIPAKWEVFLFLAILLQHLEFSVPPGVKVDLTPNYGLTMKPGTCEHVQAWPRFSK
# ZmCYP81A9-GFP [2] = molecular target: T1, ZmCYP81A9-GFP; test: activity-based labeling, streptavidin pull-down LC-MS/MS; conditions: 10 μM probe, 1 mM NADPH, 1.5 h, leaf microsomes; covalent
# ZtCYP539A6 = molecular target: T3, ZtCYP539A6 (Zymoseptoria tritici, UniProt F9XDL6); test: as above; conditions: 30 μM probe, 1 mM NADPH, 1 h, native Z. tritici microsomes; covalent
# T3 construct: gene CYP-30; native, microsomes of Z. tritici cell cultures, identified by MS; also expressed as C-terminal GFP fusion in N. benthamiana
# T3 sequence (F9XDL6 1-542): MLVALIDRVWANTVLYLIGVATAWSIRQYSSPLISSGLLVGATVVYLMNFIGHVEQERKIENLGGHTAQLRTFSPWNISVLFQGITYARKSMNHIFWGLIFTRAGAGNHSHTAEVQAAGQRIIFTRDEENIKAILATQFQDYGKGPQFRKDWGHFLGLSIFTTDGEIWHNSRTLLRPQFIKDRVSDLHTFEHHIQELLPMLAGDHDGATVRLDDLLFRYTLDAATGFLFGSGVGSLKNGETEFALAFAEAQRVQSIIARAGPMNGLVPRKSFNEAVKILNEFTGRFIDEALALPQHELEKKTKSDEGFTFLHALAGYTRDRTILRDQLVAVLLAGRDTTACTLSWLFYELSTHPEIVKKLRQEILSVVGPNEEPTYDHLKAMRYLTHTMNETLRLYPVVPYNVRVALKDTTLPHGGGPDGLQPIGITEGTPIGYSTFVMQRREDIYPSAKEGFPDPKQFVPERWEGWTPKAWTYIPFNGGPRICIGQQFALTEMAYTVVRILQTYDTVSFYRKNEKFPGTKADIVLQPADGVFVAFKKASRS
# ZtCYP52R1 = molecular target: T4, ZtCYP52R1 (Zymoseptoria tritici, UniProt F9XML6); test: as above; conditions: 30 μM probe, 1 mM NADPH, 1 h, native Z. tritici microsomes; covalent
# T4 construct: gene CYP-29; native, microsomes of Z. tritici cell cultures, identified by MS; also expressed as C-terminal GFP fusion in N. benthamiana
# T4 sequence (F9XML6 1-521): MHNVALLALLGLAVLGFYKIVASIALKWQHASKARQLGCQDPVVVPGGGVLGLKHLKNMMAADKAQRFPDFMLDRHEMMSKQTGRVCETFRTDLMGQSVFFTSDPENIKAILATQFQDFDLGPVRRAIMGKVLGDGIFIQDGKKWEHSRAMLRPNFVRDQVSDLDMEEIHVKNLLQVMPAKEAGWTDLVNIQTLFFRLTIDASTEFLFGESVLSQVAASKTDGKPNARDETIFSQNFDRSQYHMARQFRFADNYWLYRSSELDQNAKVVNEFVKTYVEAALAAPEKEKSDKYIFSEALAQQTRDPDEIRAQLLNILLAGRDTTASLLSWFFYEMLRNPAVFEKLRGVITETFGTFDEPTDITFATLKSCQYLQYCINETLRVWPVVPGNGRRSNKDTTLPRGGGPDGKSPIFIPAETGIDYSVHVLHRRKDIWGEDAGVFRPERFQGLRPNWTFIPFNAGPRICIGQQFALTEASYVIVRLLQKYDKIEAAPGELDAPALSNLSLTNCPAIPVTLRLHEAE
# ZmCYP81A9-GFP [3] = molecular target: T1, ZmCYP81A9-GFP; test: activity-based labeling, in-gel fluorescence; streptavidin pull-down LC-MS/MS; conditions: 10 μM probe, 1 mM NADPH, 1.5 h, leaf microsomes; covalent
# ZmCYP81A9 = molecular target: T5, ZmCYP81A9 (Zea mays, UniProt A0A804P7U7); test: hydroxylation monitored by LC-MS; conditions: yeast microsomes, 200 μM bentazone, 1 mM NADPH, pH 7.5, 28 °C, 2 h
# T5 construct: untagged as described; codon-optimised ORF in pYES3, microsomes of Saccharomyces cerevisiae WAT11
# T5 sequence (A0A804P7U7 with tags, fused parts or gaps): T1 sequence (A0A804P7U7 with tags, fused parts or gaps)
smiles,measurement,setting,value
C#CCCCCNC(=O)c1cc2ccc(C#C)cc2oc1=O [DB086],"activity-based labeling, click chemistry, in-gel fluorescence",ZmCYP81A9-GFP [1],NADPH-dependent fluorescent signal for DB086 and DB096
same,"activity-based labeling, click chemistry, in-gel fluorescence",MmCyp1a2-GFP,tested these for labeling with DB086 and DB096
C#CCCCCNC(=O)C1=Cc2ccc(C#C)cc2CC1 [DB088],"activity-based labeling, streptavidin pull-down LC-MS/MS",ZmCYP81A9-GFP [2],confirming that ZmCYP81A9-GFP is labeled by both DB088 and DB096
C#CCCCCNC(=O)c1ccc(C#C)cc1 [DB096],"activity-based labeling, streptavidin pull-down LC-MS/MS",ZtCYP539A6,"amongst the DB096-enriched proteins: ZtCYP52R1, ZtCYP539A6, ZtCYP5078B1 and ZtCYP5080H1"
same,"activity-based labeling, streptavidin pull-down LC-MS/MS",ZtCYP52R1,"amongst the DB096-enriched proteins: ZtCYP52R1, ZtCYP539A6, ZtCYP5078B1 and ZtCYP5080H1"
same,"activity-based labeling, in-gel fluorescence; streptavidin pull-down LC-MS/MS",ZmCYP81A9-GFP [3],NADPH-dependent fluorescent signal for DB086 and DB096
same,"activity-based labeling, click chemistry, in-gel fluorescence",MmCyp1a2-GFP,tested these for labeling with DB086 and DB096
CC(C)N1C(=O)c2ccccc2NS1(=O)=O [bentazone],hydroxylation monitored by LC-MS,ZmCYP81A9,"used to monitor the conversion of bentazone, leading to hydroxybentazone"
